We go through 2 compounds from ChEMBL document CHEMBL1152209, “Synthesis and biological activity of previtamin D(3) analogues with A-ring modifications” (2008).

Assay [1] has as its target T1, Vitamin D-binding protein (Homo sapiens) (UniProt P02774).
T1 sequence (whole entry): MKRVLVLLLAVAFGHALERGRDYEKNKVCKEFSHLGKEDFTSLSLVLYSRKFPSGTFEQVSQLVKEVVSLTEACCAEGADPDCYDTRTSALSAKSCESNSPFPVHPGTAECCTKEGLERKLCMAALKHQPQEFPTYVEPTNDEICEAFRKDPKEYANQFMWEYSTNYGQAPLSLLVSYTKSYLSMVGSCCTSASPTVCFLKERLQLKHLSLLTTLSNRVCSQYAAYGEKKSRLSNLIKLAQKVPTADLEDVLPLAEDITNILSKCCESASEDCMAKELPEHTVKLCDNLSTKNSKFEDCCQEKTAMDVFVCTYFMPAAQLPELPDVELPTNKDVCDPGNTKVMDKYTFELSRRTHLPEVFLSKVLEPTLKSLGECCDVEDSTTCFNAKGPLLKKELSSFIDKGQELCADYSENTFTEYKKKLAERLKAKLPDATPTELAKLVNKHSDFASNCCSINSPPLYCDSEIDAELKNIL
The assay is described as follows: Binding affinity to human DBP at EC50 in 4 degC relative to 1-alpha,25-(OH)2D3.

Assay [2] has as its target T2, Vitamin D3 receptor (Sus scrofa) (UniProt A3RGC1).
T2 sequence (whole entry): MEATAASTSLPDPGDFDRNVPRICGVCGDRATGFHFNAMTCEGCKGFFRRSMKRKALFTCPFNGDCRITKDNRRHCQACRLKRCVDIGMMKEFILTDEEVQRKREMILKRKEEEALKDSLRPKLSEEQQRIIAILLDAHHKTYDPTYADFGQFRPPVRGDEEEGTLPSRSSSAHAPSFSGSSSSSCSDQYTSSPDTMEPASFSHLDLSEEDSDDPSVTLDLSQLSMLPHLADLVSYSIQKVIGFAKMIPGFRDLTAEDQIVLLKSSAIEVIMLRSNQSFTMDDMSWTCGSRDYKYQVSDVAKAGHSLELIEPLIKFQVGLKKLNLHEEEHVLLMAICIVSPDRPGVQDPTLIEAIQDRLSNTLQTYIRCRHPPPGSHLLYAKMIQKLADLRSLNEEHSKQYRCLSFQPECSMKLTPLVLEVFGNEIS
In words: Displacement of [3H]1-alpha,25-(OH)2D3 from pig VDR at EC50 relative to 1-alpha,25-(OH)2D3.

A further assay deals with MCF7. In words: Inhibition of human MCF7 cell proliferation assessed as [3H]thymidine incorporation at EC50 after 72 hrs relative to 1-alpha,25-(OH)2D3. It counts as functional.

As for `C[C@H](CCCC(C)(C)O)[C@H]1CC[C@H]2C(/C=C\C3=C[C@@H](O)[C@@H]4O[C@@H]4C3)=CCC[C@]12C`, the values for the Activity in assay [1] and in assay [2] were 0.9% and 0%, respectively. The “inhibition (INH)” value in the assay on MCF7 was determined as 0%.

On to `C[C@H](CCCC(C)(C)O)[C@H]1CC[C@H]2C(/C=C\C3=C[C@@H](O)[C@H](OCCCO)[C@H](O)C3)=CCC[C@]12C`, for which the Activity in assay [1] turned out to be 0.5%; in assay [2], 0%. In the assay on MCF7, the “inhibition (INH)” value is given as 0%.
